Measured values as given in paper PMC8703807, “Synthesis of ^68Ga-Labeled cNGR-Based Glycopeptides and In Vivo Evaluation by PET Imaging” (Pharmaceutics, 2021).
Read-outs that look alike come from different tables or passages of the source. Positions of bridges follow the written chain, without caps; N, C: chain ends. Residues, ends and D or L forms follow the SMILES beside them. *: point of attachment. X1 = O=C(O)CN1CCN(CC(=O)O)CCN(C(CCC(=O)NCc2ccc(NC(=S)*)cc2)C(=O)O)CCN(CC(=O)O)CC1

Tests used:
[1] = Determination of logP value (octanol/water partition coefficient); type: physicochemical
Description: The mixture was shaken with a vortex shaker for 5 min and centrifugated (9000 rpm) for 5 min. A 3 × 20 µL amount of both solvents was pipetted into a vial. The radioactivity of the fractions was determined with a gamma counter.

[2] = In vivo PET imaging of B16-F10 melanoma tumor-bearing mice; conditions: C57BL/6, mouse, in vivo, iv, total radioactivity
Description: (§1) For subcutaneous B16-F10 (mouse melanoma) tumor induction, C57BL/6 mice (n = 20) were anaesthetized with 3% isoflurane (Forane, AbbVie) using a dedicated small animal anesthesia device (Tec3 Isoflurane Vaporizer, Eickemeyer, UK) and mice were injected subcutaneously with 3 × 10^6 B16-F10 cells in 150 µL of sterile saline into the left shoulder area of the animals. In vivo and ex vivo experiments were carried out 10 ± 1 days after subcutaneous injection of tumor cells at the tumor volume of 80 ± 2 mm^3.
(§2) For in vivo biodistribution studies B16-F10 tumor-bearing mice were anaesthetized with 3% isoflurane and were injected with 6.6 ± 0.3 MBq [^68Ga]-11, or [^68Ga]-3, or [^68Ga]-9 or [^68Ga]-10 in 150 μL saline via the lateral tail vein 10 ± 1 days after subcutaneous injection of tumor cells. 20 min static PET scans were performed 70 min after intravenous injection of the radiotracers from the tumorous area using the preclinical miniPET-II device (University of Debrecen, Faculty of Medicine, Department of Medical Imaging, Division of Nuclear Medicine and Translational Imaging). After image reconstruction, volumes of interest (VOIs) were manually drawn around the examined regions using the BrainCAD image analysis software and quantitative standardized uptake values (SUVs) values were calculated.
(§3) Figure 1 In vivo PET imaging of [^68Ga]-11, [^68Ga]-3, [^68Ga]-9 and [^68Ga]-10 accumulation in B16-F10 tumor-bearing mice 10 ± 1 days after tumor cell inoculation and 70 min after intravenous injection of the radiotracers (A panel). Red arrows: B16-F10 tumor; black arrows: liver. (B,C) panels: quantitative SUVmean and tumor-to-background (muscle) ratio (T/M) analysis of tracer uptake in mice (n = 3/radiopharmaceutical) 70 min post-injection. Significance level: p ≤ 0.05 (*). SUV: standardized uptake value; T/M: tumor-to-muscle ratio. SUV values are presented as mean ± SD.

[3] = system: B16-F10 melanoma tumor-bearing mice; assay: as above; conditions: 70 min after i.v. injection; for identification of subcutaneous B16-F10 tumors on PET images: qualitative
Description: as §1, §2, §3

[4] = system: B16-F10 tumor-bearing mice; conditions: ex vivo, 90 min after injection, compared to the other investigated molecules
Description: as §1

[5] = 1-octanol/water, gamma counter, read-out: octanol/water partition coefficient (logP)
[6] = tumor SUVmean, B16-F10 tumor, 70 min after i.v. injection, n = 3, mean ± SD

SMILES | logP [1, 5] | tissue to tissue ratio at 70 min [2] | SUV at 70 min [2, 6] [SUV] | liver SUVmean ([3]; n = 3, mean ± SD) | identification of subcutaneous B16-F10 tumors on PET images [3] | SUV at 70 min ([2]; liver SUVmean, 70 min after i.v. injection, n = 3, mean ± SD) [SUV] | radioactivity concentration in blood [4] | logP [1] | SUV at 70 min ([2]; liver SUVmean) [SUV] | SUV at 70 min ([2]; tumor SUVmean) [SUV]
N=C(N)NCCC[C@@H]1NC(=O)CNC(=O)[C@H](CC(N)=O)NC(=O)[C@H](CCCCNC(=O)CCC(=O)N2Cc3ccccc3-c3c(nnn3CCCO[C@@H]3O[C@H](CO)[C@@H](O[C@@H]4O[C@H](CO)[C@H](O)[C@H](O)[C@H]4O)[C@H](O)[C@H]3NC(=S)Nc3ccc(CNC(=O)CCC(C(=O)O)N4CCN(CC(=O)O)CCN(CC(=O)O)CCN(CC(=O)O)CC4)cc3)-c3ccccc32)NC(=O)CC[C@@H](C(N)=O)NC1=O (stereo partly shown) [[^68Ga]-9, metal not drawn] | -3.68 | 6.01 ± 1.24 | 0.11 ± 0.03 | 0.18 ± 0.01 | clearly identified |  |  |  |  | 
N=C(N)NCCC[C@@H]1NC(=O)CNC(=O)[C@H](CC(N)=O)NC(=O)[C@H](CCCCNC(=O)CCOCCOCCOCCOCCNC(=O)CCC(=O)N2Cc3ccccc3-c3c(nnn3CCCO[C@@H]3O[C@H](CO)[C@@H](O[C@@H]4O[C@H](CO)[C@H](O)[C@H](O)[C@H]4O)[C@H](O)[C@H]3NC(=S)Nc3ccc(CNC(=O)CCC(C(=O)O)N4CCN(CC(=O)O)CCN(CC(=O)O)CCN(CC(=O)O)CC4)cc3)-c3ccccc32)NC(=O)CC[C@@H](C(N)=O)NC1=O (stereo partly shown) [[^68Ga]-10, metal not drawn] | -3.69 | 7.89 ± 1.31 | 0.15 ± 0.01 |  | clearly identified | 0.1 ± 0.02 | higher radioactivity concentration |  |  | 
N=C(N)NCCC[C@@H]1NC(=O)CNC(=O)[C@H](CC(N)=O)NC(=O)[C@H](CCCCNC(=S)Nc2ccc(CNC(=O)CCC(C(=O)O)N3CCN(CC(=O)O)CCN(CC(=O)O)CCN(CC(=O)O)CC3)cc2)NC(=O)CC[C@@H](C(N)=O)NC1=O (stereo partly shown) [[^68Ga]-11, metal not drawn] (K(X1)NGRE-NH2; lactam N-5) |  | 5.71 ± 1.17 |  |  | clearly identified |  |  | -4.13 | 0.28 ± 0.1 | 0.09 ± 0.03
